Measured values: ChEMBL document CHEMBL1275247, “Pharmacokinetics and safety of CXA-101, a new antipseudomonal cephalosporin, in healthy adult male and female subjects receiving single- and multiple-dose intravenous infusions” (Antimicrob Agents Chemother, 2010)

What was measured:
[1] = Cmax in healthy human at 1000 mg, iv administered as single dose as 1 hr iv infusion; type: ADME, organism-based; parameters: dose 1000 mg, route intravenous; conditions: in vivo
[2] = Cmax in healthy human at 2000 mg, iv administered as single dose as 1 hr iv infusion; type: ADME, organism-based; parameters: dose 2000 mg, route intravenous; conditions: in vivo
[3] = Tmax in healthy human at 250 mg, iv administered as single dose as 1 hr iv infusion; type: ADME, organism-based; conditions: in vivo
[4] = AUC (0 to infinity) in healthy human at 250 mg, iv administered as single dose as 1 hr iv infusion; type: ADME, organism-based; parameters: dose 250 mg, route intravenous, time infinity; conditions: plasma
[5] = AUC (0 to infinity) in healthy human at 500 mg, iv administered as single dose as 1 hr iv infusion; type: ADME, organism-based; parameters: dose 500 mg, time infinity, route intravenous; conditions: plasma
[6] = AUC (0 to infinity) in healthy human at 2000 mg, iv administered as single dose as 1 hr iv infusion; type: ADME, organism-based; parameters: dose 2000 mg, route intravenous, time infinity; conditions: plasma
[7] = Clearance in healthy human at 250 mg, iv administered as single dose as 1 hr iv infusion; type: ADME, organism-based; conditions: in vivo
[8] = Clearance in healthy human at 2000 mg, iv administered as single dose as 1 hr iv infusion; type: ADME, organism-based; conditions: in vivo
[9] = Renal clearance in healthy human at 1000 mg, iv administered as single dose as 1 hr iv infusion; type: ADME, organism-based, Kidney; conditions: in vivo, read-out: CL_renal
[10] = Renal clearance in healthy human at 2000 mg, iv administered as single dose as 1 hr iv infusion; type: ADME, organism-based, Kidney; conditions: in vivo, read-out: CL_renal
[11] = Volume of distribution at steady state in healthy human at 500 mg, iv administered as single dose as 1 hr iv infusion; type: ADME, organism-based; conditions: in vivo
[12] = Volume of distribution at steady state in healthy human at 1000 mg, iv administered as single dose as 1 hr iv infusion; type: ADME, organism-based; conditions: in vivo
[13] = Drug recovery in urine of healthy human at 1000 mg, iv administered as single dose as 1 hr iv infusion after 24 hrs; type: ADME, organism-based; conditions: read-out: Activity
[14] = Half-life in plasma of healthy human 250 mg administered as single ascending dose, iv for 1 hr infusion; type: ADME, organism-based
[15] = Half-life in plasma of healthy human 1500 mg administered as single ascending dose, iv for 1 hr infusion; type: ADME, organism-based
[16] = Half-life in plasma of healthy human 2000 mg administered as single ascending dose, iv for 1 hr infusion; type: ADME, organism-based
[17] = Mean residence time in healthy human at 250 mg, iv administered as single dose as 1 hr iv infusion; type: ADME, organism-based; conditions: in vivo
[18] = Mean residence time in healthy human at 500 mg, iv administered as single dose as 1 hr iv infusion; type: ADME, organism-based; conditions: in vivo
[19] = Mean residence time in healthy human at 2000 mg, iv administered as single dose as 1 hr iv infusion; type: ADME, organism-based; conditions: in vivo
[20] = Volume of distribution at steady state in healthy human at 2000 mg, iv administered as single dose as 1 hr iv infusion; type: ADME, organism-based; conditions: in vivo
Homo sapiens [21] = test: Toxicity in healthy human assessed as occurrence of headache at 1000 mg, iv administered as single dose as 1 hr iv infusion; type: organism-based; conditions: in vivo
Homo sapiens [22] = test: Toxicity in healthy human assessed as occurrence of flushing at 1000 mg, iv administered as 1 hr infusion every 8 hrs for 10 days; type: organism-based; conditions: in vivo
[23] = Cmax in healthy human at 500 mg, iv administered as 1 hr infusion every 8 hrs for 10 days measured on day 10; type: ADME, organism-based; parameters: dose 500 mg, route intravenous; conditions: in vivo
[24] = Tmax in healthy human at 500 mg, iv administered as 1 hr infusion every 8 hrs for 10 days measured on day 1; type: ADME, organism-based; conditions: in vivo
[25] = AUC (0 to infinity) in healthy human at 1000 mg, iv administered as 1 hr infusion every 8 hrs for 10 days measured on day 1; type: ADME, organism-based; parameters: dose 1000 mg, time infinity, route intravenous; conditions: plasma
[26] = AUC (0 to infinity) in healthy human at 1000 mg, iv administered as 1 hr infusion every 8 hrs for 10 days measured on day 10; type: ADME, organism-based; parameters: dose 1000 mg, time infinity, route intravenous; conditions: plasma
[27] = AUC (0 to infinity) in healthy human at 1500 mg, iv administered as 1 hr infusion every 12 hrs for 10 days measured on day 1; type: ADME, organism-based; parameters: dose 1500 mg, route intravenous, time infinity; conditions: plasma
[28] = Clearance in healthy human at 1000 mg, iv administered as 1 hr infusion every 8 hrs for 10 days measured on day 10; type: ADME, organism-based; conditions: in vivo
[29] = Clearance in healthy human at 1500 mg, iv administered as 1 hr infusion every 12 hrs for 10 days measured on day 10; type: ADME, organism-based; conditions: in vivo
[30] = Renal clearance in healthy human at 500 mg, iv administered as 1 hr infusion every 8 hrs for 10 days measured on day 10; type: ADME, organism-based, Kidney; conditions: in vivo, read-out: CL_renal
[31] = Renal clearance in healthy human at 1000 mg, iv administered as 1 hr infusion every 8 hrs for 10 days measured on day 1; type: ADME, organism-based, Kidney; conditions: in vivo, read-out: CL_renal
[32] = Renal clearance in healthy human at 1000 mg, iv administered as 1 hr infusion every 8 hrs for 10 days measured on day 10; type: ADME, organism-based, Kidney; conditions: in vivo, read-out: CL_renal
[33] = Renal clearance in healthy human at 1500 mg, iv administered as 1 hr infusion every 12 hrs for 10 days measured on day 1; type: ADME, organism-based, Kidney; conditions: in vivo, read-out: CL_renal
[34] = Volume of distribution at steady state in healthy human at 500 mg, iv administered as 1 hr infusion every 8 hrs for 10 days measured on day 1; type: ADME, organism-based; conditions: in vivo
[35] = Volume of distribution at steady state in healthy human at 1000 mg, iv administered as 1 hr infusion every 8 hrs for 10 days measured on day 1; type: ADME, organism-based; conditions: in vivo
[36] = Volume of distribution at steady state in healthy human at 1000 mg, iv administered as 1 hr infusion every 8 hrs for 10 days measured on day 10; type: ADME, organism-based; conditions: in vivo
[37] = Half-life in plasma of healthy human 500 mg, iv administered as 1 hr infusion every 8 hrs for 10 days measured on day 1; type: ADME, organism-based
[38] = Half-life in plasma of healthy human 500 mg, iv administered as 1 hr infusion every 8 hrs for 10 days measured on day 10; type: ADME, organism-based
[39] = Half-life in plasma of healthy human 1000 mg, iv administered as 1 hr infusion every 8 hrs for 10 days measured on day 1; type: ADME, organism-based
[40] = Half-life in plasma of healthy human 1000 mg, iv administered as 1 hr infusion every 8 hrs for 10 days measured on day 10; type: ADME, organism-based
[41] = Mean residence time in healthy human at 500 mg, iv administered as 1 hr infusion every 8 hrs for 10 days measured on day 10; type: ADME, organism-based; conditions: in vivo
[42] = Mean residence time in healthy human at 1000 mg, iv administered as 1 hr infusion every 8 hrs for 10 days measured on day 1; type: ADME, organism-based; conditions: in vivo
[43] = Mean residence time in healthy human at 1500 mg, iv administered as 1 hr infusion every 12 hrs for 10 days measured on day 10; type: ADME, organism-based; conditions: in vivo
[44] = Drug recovery in urine of healthy human at 500 mg, iv administered as 1 hr infusion every 8 hrs for 10 days measured on day 1; type: ADME, organism-based; conditions: read-out: Activity
[45] = Drug recovery in urine of healthy human at 1500 mg, iv administered as 1 hr infusion every 12 hrs for 10 days measured on day 1; type: ADME, organism-based; conditions: read-out: Activity
[46] = Cmax in healthy human at 500 mg, iv administered as single dose as 1 hr iv infusion; type: ADME, organism-based; parameters: dose 500 mg, route intravenous; conditions: in vivo

For `Cn1c(N)c(NC(=O)NCCN)c[n+]1CC1=C(C(=O)O)N2C(=O)[C@@H](NC(=O)/C(=N\OC(C)(C)C(=O)[O-])c3nsc(N)n3)[C@H]2SC1` [CEFTOLOZANE], the Cmax [1] was 58400 ng/mL, the Cmax [2] was 128000 ng/mL and the Tmax [3] was 1.03 h. The AUC(0-inf) [4] was 40.1 µg·h/mL, the AUC(0-inf) [5] was 84.1 µg·h/mL and the AUC(0-inf) [6] was 344 µg·h/mL. It also gave a clearance [7] of 104 mL/min, a clearance [8] of 96.9 mL/min and a CL renal at 1 h [9] of 93.4 mL/min. For the same compound, the CL renal at 1 h [10] was 92.9 mL/min, the Vd [11] was 14.8 L and the Vd [12] was 16.3 L. It also gave a dose excreted at 24 h [13] of 85.2%, a half-life [14] of 1.86 h and a half-life [15] of 2.62 h. The half-life [16] was 2.45 h, the MRT [17] was 2.09 h and the MRT [18] was 2.5 h. The MRT [19] was 2.54 h, the Vd [20] was 14.8 L and the Activity (Homo sapiens [21]) was “Non-toxic”. For the same compound, the Activity (Homo sapiens [22]) was “Non-toxic”, the Cmax [23] was 33300 ng/mL and the Tmax [24] was 1.03 h. The AUC(0-inf) [25] was 149 µg·h/mL, the AUC(0-inf) [26] was 143 µg·h/mL and the AUC(0-inf) [27] was 219 µg·h/mL. It also gave a clearance [28] of 116 mL/min, a clearance [29] of 121 mL/min and a CL renal [30] of 87.6 mL/min. It also gave a CL renal [31] of 112 mL/min, a CL renal [32] of 111 mL/min and a CL renal [33] of 119 mL/min. For the same compound, the Vd [34] was 13.8 L, the Vd [35] was 17.8 L and the Vd [36] was 17.1 L. It also gave a half-life [37] of 2.21 h, a half-life [38] of 2.2 h and a half-life [39] of 2.38 h. It also gave a half-life [40] of 2.69 h, an MRT [41] of 2.32 h and an MRT [42] of 2.64 h. The MRT [43] was 2.5 h, the dose excreted at 1 day [44] was 82.9% and the dose excreted at 1 day [45] was 104%. The Cmax [46] was 32200 ng/mL.
